{"source": "patent US20130089562A1", "about": "“METHODS OF TREATING LIVER CONDITIONS USING NOTCH2 ANTAGONISTS” (priority 2011, published 2013)", "key": {"[1]": {"tested_on": "primary oval cells (liver progenitor cells)", "test": "Colony formation and proliferation of primary oval cell cultures on Sw-3T3 feeder fibroblasts", "assay_type": "cell-based, mouse", "experimental": "To identify the signals that regulate hepatocyte differentiation from liver progenitor cells, transcriptional profiling was performed on adult liver progenitors (oval cells) from mice fed a choline deficient, ethionine supplemented (CDE) diet (FIG. 1A; FIG. 5A). This CDE model is known in the art as a model of chronic liver disease. CDE is also a steatohepatitis model (NASH). Chronic CDE can also lead to hepatocellular carcinoma (HCC), thereby also serving as a model for HCC. To induce an oval cell response, 8-12 week-old female C57BL/6N mice (Charles River) were fed a choline deficient diet (20% Lard; Teklad TD.04523) supplemented with 0.15% (w/v) Ethionine in the drinking water (Akhurst et al., Hepatology 34(3):519 (2001)). Liver non-parenchymal cells were isolated according to the protocol of del Castillo (del Castillo et al., Am. J. Pathol., 172(5):1238 (2008)) with the addition of 0.04% Hyaluronidase (Sigma) to the in vitro dissociation step.\nTo elucidate the role of Notch signaling in liver regeneration, an in vitro culture system was developed. Cell cultures were established by culturing primary oval cells on Sw-3T3 fibroblasts (ATCC), arrested with Mitomycin C (Sigma), in High Glucose Dulbecco's Modified Eagle Medium (DMEM; Invitrogen) supplemented with 15% Fetal Calf Serum (Sigma), non-essential amino acids (Invitrogen), Glutamax (Invitrogen), and ITS (Invitrogen)."}, "[2]": {"tested_on": "Notch2 intracellular domain (ICD)", "test": "Notch2 signaling in cultured oval cells (Western blot for γ-secretase cleaved Notch2 ICD; Hes1 expression)", "assay_type": "cell-based, mouse", "conditions": "FIG. 2H", "source_text": "The anti-activated Notch2 antibody (clone 40-2-7) was generated against the peptide VIMAKRKRKHGSLW, corresponding to amino acids 1697-1710 of the human Notch2 protein sequence (SEQ ID NO:73), coupled to KLH (YenZym Custom Antibodies, LLC). Splenocytes from a rabbit producing an antibody with the appropriate specificity were used to generate hybridomas (Epitomics, Inc.). Clone 40-2-7 was identified by screening the resulting rabbit monoclonal antibodies by immunoblotting and immunohistochemistry. This antibody recognizes both human (FIG. 7B, left panel) and mouse (FIG. 7B, right panel) active Notch2 at endogenous levels.\nProgenitors cultured in the culture system maintained growth (FIG. 2A) and formed colonies consisting of small, tightly packed cells with a high nuclear-cytoplasmic ratio and a distinct raised edge (FIG. 2A, left panel). The cells within these colonies were uniformly EpCAM positive (FIG. 2A, right panel). […] Activated Notch2 was detected by Western blot analysis using a rabbit monoclonal antibody raised against the S3 cleaved form of the human Notch2 protein (FIG. 7B). […]\nNotch2 signaling was active in cultured oval cells, as transcriptionally active Notch2 intracellular domain (ICD) could be detected using an antibody specific to the γ-secretase cleaved form of this receptor (FIG. 2H). […]"}}, "data": [{"smiles": "C[C@H](NC(=O)Cc1cc(F)cc(F)c1)C(=O)N[C@H](C(=O)OC(C)(C)C)c1ccccc1", "note": "[DAPT, N—[N-(3,5-difluorophenacetyl)-1-alanyl]-S-phenylglycine t-butyl ester]", "values": [{"measurement": "progenitor cell proliferation", "setting": "[1]; FIG. 2D", "value": "small increase"}, {"measurement": "enhancement of colony formation", "setting": "[1]; primary cultures treated with DAPT, FIG. 2B", "value": "approximately ten-fold"}, {"measurement": "appearance of γ-secretase cleaved (active) form of Notch2", "setting": "[2]", "value": "absent"}]}]}
